Measurements reported in patent US20200179380A1, “SOLUTE AND SOLUTE MIXTURE, AS WELL AS A COMPOSITION COMPRISING AT LEAST ONE SOLUTE, FOR USE IN THE PREVENTION OR TREATMENT OF COSMETIC OR PATHOLOGIC EFFLORESCENCES CAUSED BY AIRBORNE PARTICLES” (bitop AG, priority 2014, published 2020).
Values joined by “and” are separate entries in the source; they are usually repeats but may differ in a detail not shown here. Equal values may be shown once. Read-outs that look alike come from different tables or passages of the source.

Experiments:
Format in all cases: cell-based, human
POMC gene = POMC gene expression (real-time PCR, relative to 18s-rRNA) in keratinocytes exposed to model particles; details: for inhibition at 2000 µM / activity at 2000 µM: Homo sapiens, Keratinocyte, 2 mM S-ectoine; for activity at 2000 µM: read-out: POMC Remaining activity %; for POMC expression ±S-ectoine mean ± SD: 24 h pretreatment with 2 mM S-ectoine, untreated = 1; for POMC expression induced by model particles after ectoine pretreatment (in words): Printex90, Huber 990, SRM1650, SRM2975, pretreatment with 2 mM ectoine for 24 hours
Cyp1a1 gene = Cyp1a1 gene expression (real-time PCR, relative to 18s-rRNA) in keratinocytes exposed to model particles; details: for inhibition at 2000 µM / activity at 2000 µM: Homo sapiens, Keratinocyte, 2 mM S-ectoine; for activity at 2000 µM: read-out: Cyp1a1 Remaining activity %
Description: The model particles were suspended in phosphate buffered saline solution and treated with ultrasound for 1 minute ([…]90, SRM1650 and SRM2975) or 90 seconds (Huber990). Subsequently, addition to keratinocytes was done immediately. […] The incubation time of keratinocytes under the influence of model particles was 24 hours. Human epidermal keratinocytes were taken from healthy patients during abdominoplasty or breast reduction with the consent of the patients. The tissue donors originate in Asia or were of Caucasian origin. The keratinocytes isolated from the tissues were cultivated in Keratinocyte-SFM (Gibco®, Life Technologies GmbH, Darmstadt, Germany). The medium was enriched by 5 mg/L of human recombinant epidermal growth factor (EGF), 50 mg/L pituitarium which is an extract from pituitary gland from bovine (Bovine Pituitary Extract, BPE), 1% L-glutamine, 1% streptomycin/amphotericin B (Invitrogen, Karlsruhe, Germany). The cultivation was done at humid atmosphere in the presence of 5% CO2. Subconfluent keratinocytes were transferred to sample vessels having 12 sample wells (12-well plates), and were each cultivated in the sample wells. Treatment with the model particles was also done in the sample wells. […] After an incubation time of 24 hours in the presence of the model particles, RNA was isolated from the keratinocytes and relative RNA content was determined. The expression of proinflammatory gene ICAM-1, POMC gene encoding for proopiomelanocortin, MMP1 gene encoding for a human collagenase, and Cyp1a1 encoding for a phase-I-enzyme of Cytochrome P450 superfamily was investigated as a marker for the influence of the model particles on skin condition. The enzyme encoded by Cyp1a1 gene ranks among the group of phase-I-P450-Cytochrome enzymes and mediates metabolism of drugs, foreign substances and environmental toxins. The Cy1a1 enzyme is a monooxygenase and responsible for metabolizing the afore-mentioned compounds. The protein is encoded in endoplasmic reticulum and its expression can severely be induced by polycyclic aromatic hydrocarbons. The enzyme encoded by Cyp1a1 metabolizes environmental noxae, in particular polycyclic aromatic hydrocarbons, into cancer-causing intermediates. Cyp1a2 is a family member related to Cyp1a1. Increased Cyp1a1 expression, and, in particular, increased Cyp1a2 expression, thus proves detoxification reaction. The total RNA content was determined according to […] et al. ([…]-Beck […], Brenden H, […]. “Bioactive molecules from the Blue Lagoon: in vitro and in vivo assessment of silica mud and microalgae extracts for their effects on skin barrier function and prevention of skin ageing”. Exp Dermatol 2008 17:771.). For this purpose, the total RNA was isolated using RNeasy Total RNA Kits (Qiagen, Hilden; Germany). The RNA concentration was photometrically determined at 260/280 nm (Biophotometer, Eppendorf, Hamburg, Germany). Aliquots of total RNA of 100 ng were used for first strand cDNA synthesis using Superscript® III for the transcription step using random primers (Invitrogen, Karlsruhe, Germany). […] For the total RNA content a specific primer for the proof of 18s rRNA was designed. Independent experiments were performed with a triple determination in each case, and the mean was determined. PCR reaction was done using CFX384 TouchTM Real-Time PCR Detection System (Bio-Rad, München, Germany). In order to fluorescent marking SybrGreen-Mix was used (Thermo Fisher Scientific, St. Leon-Rot, Germany). For each experiment three samples, respectively, were determined in duplicate, and the mean was determined. […] (activation of heat-activating taq polymerase) 10 seconds at 95° C. (denaturation), 20 seconds at 55° C. (annealing), 20 seconds at 72° C. (elongation). Likewise, for comparison of relative expression the expression of untreated keratinocytes was investigated. […] Methods 25: 402-408). […] The data underlying the statistical analysis are not shown here.

MMP1 gene = MMP1 gene expression (real-time PCR, relative to 18s-rRNA) in keratinocytes exposed to model particles; details: for inhibition at 2000 µM / activity at 2000 µM: Homo sapiens, Keratinocyte, 2 mM S-ectoine; for activity at 2000 µM: read-out: MMP1 Remaining activity %; for MMP1 expression ±S-ectoine mean ± SD: 24 h pretreatment with 2 mM S-ectoine, untreated = 1
Description: The model particles were suspended in phosphate buffered saline solution and treated with ultrasound for 1 minute ([…]90, SRM1650 and SRM2975) or 90 seconds (Huber990). Subsequently, addition to keratinocytes was done immediately. […] The incubation time of keratinocytes under the influence of model particles was 24 hours. Human epidermal keratinocytes were taken from healthy patients during abdominoplasty or breast reduction with the consent of the patients. The tissue donors originate in Asia or were of Caucasian origin. The keratinocytes isolated from the tissues were cultivated in Keratinocyte-SFM (Gibco®, Life Technologies GmbH, Darmstadt, Germany). The medium was enriched by 5 mg/L of human recombinant epidermal growth factor (EGF), 50 mg/L pituitarium which is an extract from pituitary gland from bovine (Bovine Pituitary Extract, BPE), 1% L-glutamine, 1% streptomycin/amphotericin B (Invitrogen, Karlsruhe, Germany). The cultivation was done at humid atmosphere in the presence of 5% CO2. Subconfluent keratinocytes were transferred to sample vessels having 12 sample wells (12-well plates), and were each cultivated in the sample wells. Treatment with the model particles was also done in the sample wells. […] After an incubation time of 24 hours in the presence of the model particles, RNA was isolated from the keratinocytes and relative RNA content was determined. The expression of proinflammatory gene ICAM-1, POMC gene encoding for proopiomelanocortin, MMP1 gene encoding for a human collagenase, and Cyp1a1 encoding for a phase-I-enzyme of Cytochrome P450 superfamily was investigated as a marker for the influence of the model particles on skin condition. The collagenase encoded by MMP1 gene ranks among the matrix metalloproteases and cleaves the peptide bond between proline and other amino acids of collagen I, II, III, VII and X, thereby degrading the collagen. Collagenases and, in particular, the MMP1 collagenase are involved in tissue remodeling and biological processes of the skin, such ach morphogenesis or tumor growth (benign or malign tumor formation). Thus, increased expression of MMP1 gene is a proof for increased activity of the skin cells, in particular keratinocytes. Increased MMP1 gene expression can be an indication of excessive cell growth and, thereby, of benign or malign carcinogenesis. The total RNA content was determined according to […] et al. ([…]-Beck […], Brenden H, […]. “Bioactive molecules from the Blue Lagoon: in vitro and in vivo assessment of silica mud and microalgae extracts for their effects on skin barrier function and prevention of skin ageing”. Exp Dermatol 2008 17:771.). For this purpose, the total RNA was isolated using RNeasy Total RNA Kits (Qiagen, Hilden; Germany). The RNA concentration was photometrically determined at 260/280 nm (Biophotometer, Eppendorf, Hamburg, Germany). Aliquots of total RNA of 100 ng were used for first strand cDNA synthesis using Superscript® III for the transcription step using random primers (Invitrogen, Karlsruhe, Germany). […] For the total RNA content a specific primer for the proof of 18s rRNA was designed. Independent experiments were performed with a triple determination in each case, and the mean was determined. PCR reaction was done using CFX384 TouchTM Real-Time PCR Detection System (Bio-Rad, München, Germany). In order to fluorescent marking SybrGreen-Mix was used (Thermo Fisher Scientific, St. Leon-Rot, Germany). For each experiment three samples, respectively, were determined in duplicate, and the mean was determined. The PCR protocol comprised 46 cycles, each cycle 15 minutes at 94° C. (activation of heat-activating taq polymerase) 10 seconds at 95° C. (denaturation), 20 seconds at 55° C. (annealing), 20 seconds at 72° C. (elongation). Likewise, for comparison of relative expression the expression of untreated keratinocytes was investigated. […] Methods 25: 402-408). […] The data underlying the statistical analysis are not shown here.

[1] = Printex90, Huber 990, SRM1650, SRM2975, pretreatment with 2 mM ectoine

CC1=N[C@H](C(=O)O)CCN1 [S-ectoine, (S)-1,4,5,6-tetrahydro-2-methyl-4-pyrimidine carboxylic acid]
inhibition at 2000 µM (POMC gene; Huber990 particles): 100%
activity at 2000 µM (POMC gene; Huber990 particles): 0%
inhibition at 2000 µM (POMC gene; Printex90 particles): 100%
activity at 2000 µM (POMC gene; Printex90 particles): 0%
inhibition at 2000 µM (POMC gene; SRM1650 particles): 99%
activity at 2000 µM (POMC gene; SRM1650 particles): 1%
inhibition at 2000 µM (POMC gene; SRM2975 particles): 100%
activity at 2000 µM (POMC gene; SRM2975 particles): 0%
POMC expression ±S-ectoine mean ± SD (POMC gene; Huber990 particles): 0.83 ± 0.04+
POMC expression induced by model particles after ectoine pretreatment (in words) (POMC gene): significant inhibition
POMC expression induced by model particles after ectoine pretreatment (in words) (POMC gene; listed as ectoine): inhibited
POMC expression ±S-ectoine mean ± SD (POMC gene; Printex90 particles): 0.88 ± 0.05+
POMC expression ±S-ectoine mean ± SD (POMC gene; SRM1650 particles): 1.01 ± 0.05+
POMC expression ±S-ectoine mean ± SD (POMC gene; SRM2975 particles): 0.99 ± 0.08+
inhibition at 2000 µM (Cyp1a1 gene; Huber990 particles): 57%
activity at 2000 µM (Cyp1a1 gene; Huber990 particles): 43%
inhibition at 2000 µM (Cyp1a1 gene; Printex90 particles): 70%
activity at 2000 µM (Cyp1a1 gene; Printex90 particles): 30%
inhibition at 2000 µM (Cyp1a1 gene; SRM1650 particles): 46%
activity at 2000 µM (Cyp1a1 gene; SRM1650 particles): 54%
inhibition at 2000 µM (Cyp1a1 gene; SRM2975 particles): 41%
activity at 2000 µM (Cyp1a1 gene; SRM2975 particles): 59%
Cyp1a1 expression induced by model particles after ectoine pretreatment (in words) (Cyp1a1 gene; [1]): inhibited
Cyp1a1 expression ±S-ectoine mean ± SD (Cyp1a1 gene; Printex90 particles, 24 h pretreatment with 2 mM S-ectoine, untreated = 1): 1.19 and 1.19 ± 0.29
inhibition at 2000 µM (MMP1 gene; Huber990 particles): 42%
activity at 2000 µM (MMP1 gene; Huber990 particles): 58%
inhibition at 2000 µM (MMP1 gene; SRM1650 particles): 26%
activity at 2000 µM (MMP1 gene; SRM1650 particles): 74%
MMP1 expression induced by model particles after ectoine pretreatment (in words) (MMP1 gene; [1]): inhibited
MMP1 expression ±S-ectoine mean ± SD (MMP1 gene; Printex90 particles): 0.82 ± 0.10
MMP1 expression ±S-ectoine mean ± SD (MMP1 gene; SRM2975 particles): 1.28 ± 0.22
